Tests used:
[1] = test system: cGAS/STING pathway; experiment: THP1 cell-based cGAS/STING pathway activity assay (luciferase reporter linked to IRF-3 activation); conditions: Homo sapiens, THP-1; THP1 cells, IRF-3 linked luciferase reporter
Experimental: A cellular assay can be used to assess the compounds of the invention for their ability to inhibit the cGAS/STING pathway. Cells that express a luciferase-based reporter that is linked to IRF-3 activation are used to determine response as a function of compound concentration. Such an assay is described in Vincent et al., Nature Communications 2017, 8(1):750, doi: 10.1038/s41467-017-00833-9. Compounds of the invention were assessed using similar assay methods in a THP1 cell assay to generate IC50 values as provided in the following Table 8. In this table, activity level “A” indicates an IC50 value less than 20 μM, “B” indicates an IC50 value between 20 and 100 μM, and “C” indicates an IC50 value above the upper limit of the assay (100 μM), or where an IC50 value could not be generated from the data.

[2] = biological target: T1, Human cGAS amino acids 155-522 (Homo sapiens, UniProt Q8N884); experiment: cGAS activity assay (DNA-activated cGAS, remaining ATP measured by Kinase-Glo Max luciferase assay); format: biochemical; conditions: 300 nM purified cGAS, 1 μM dsDNA, 250 μM ATP, 100 μM GTP, 37° C. for 1.25 hours
T1 construct: hexahistidine tag (N, cleaved yes); made in house; host or cells: E. coli BL21 DE3 Rosetta 2
T1 sequence (Q8N884 157-522): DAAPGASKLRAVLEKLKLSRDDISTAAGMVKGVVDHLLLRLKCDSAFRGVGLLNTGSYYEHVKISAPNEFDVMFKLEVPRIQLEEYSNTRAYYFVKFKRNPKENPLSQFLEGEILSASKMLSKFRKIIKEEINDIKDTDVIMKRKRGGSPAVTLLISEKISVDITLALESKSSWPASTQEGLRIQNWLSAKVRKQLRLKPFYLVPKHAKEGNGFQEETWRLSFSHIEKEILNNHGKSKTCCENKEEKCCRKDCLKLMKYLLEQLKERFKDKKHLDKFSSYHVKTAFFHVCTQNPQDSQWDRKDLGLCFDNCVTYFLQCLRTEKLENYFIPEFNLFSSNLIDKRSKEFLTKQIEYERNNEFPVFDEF
Method in brief: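 Recombinant human cGAS 155-522 (300 nM) activated by 1 μM annealed dsDNA, run at 37° C for 1.25 h in Tris pH 9 buffer with 250 μM ATP and 100 μM GTP, 5% final DMSO. Compounds from 1 μM in 3- or 4-fold dilutions; remaining ATP read by luciferase luminescence, normalized to no-compound wells.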

Row | Compound | IC50 [1] | IC50 [2]
1 | COCCOCCNC(=O)[C@H](Cc1ccc(C#N)cc1)Nc1nc(NCc2nc3cc(F)ccc3[nH]2)nc(Nc2cccc(CN3CCN(C(=O)c4nccnc4O)CC3)c2)n1 [TA1025, (S)-3-(4-cyanophenyl)-2-((4-(((5-fluoro-1H-benzo[d]imidazol-2-yl)methyl)amino)-6-((3-((4-(3-hydroxypyrazine-2-carbonyl)piperazin-1-yl)methyl)phenyl)amino)-1,3,5-triazin-2-yl)amino)-N-(2-(2-methoxyethoxy)ethyl)propanamide] | > 100 µM | < 20 µM
2 | COC(=O)[C@H](Cc1ccc(C#N)cc1)Nc1nc(Nc2cccc(CN3CCN(C(=O)c4nccnc4O)CC3)c2)nc(N(C)CCc2nc3ccc(OC)cc3[nH]2)n1 [TA1053, methyl (S)-3-(4-cyanophenyl)-2-((4-((3-((4-(3-hydroxypyrazine-2-carbonyl)piperazin-1-yl)methyl)phenyl)amino)-6-((2-(6-methoxy-1H-benzo[d]imidazol-2-yl)ethyl)(methyl)amino)-1,3,5-triazin-2-yl)amino)propanoate] | > 100 µM | < 20 µM
3 | COC(=O)[C@H](Cc1ccccc1)Nc1nc(NCc2nc3cc(F)ccc3[nH]2)nc(Nc2cccc(CN3CCN(C(=O)c4nccnc4O)CC3)c2)n1 [TA1065, methyl (4-(((5-fluoro-1H-benzo[d]imidazol-2-yl)methyl)amino)-6-((3-((4-(3-hydroxypyrazine-2-carbonyl)piperazin-1-yl)methyl)phenyl)amino)-1,3,5-triazin-2-yl)-L-phenylalaninate] | 20 to 100 µM | < 20 µM
4 | COC(=O)[C@H](Cc1ccc(C#N)cc1)Nc1nc(NCc2nc3cc(F)ccc3[nH]2)nc(Nc2cccc(CN3CCN(C(=O)c4ccnnc4O)CC3)c2)n1 [TA1066, methyl (S)-3-(4-cyanophenyl)-2-((4-(((5-fluoro-1H-benzo[d]imidazol-2-yl)methyl)amino)-6-((3-((4-(3-hydroxypyridazine-4-carbonyl)piperazin-1-yl)methyl)phenyl)amino)-1,3,5-triazin-2-yl)amino)propanoate] | > 100 µM | < 20 µM
5 | COCCOCCOC(=O)[C@H](Cc1ccc(C#N)cc1)Nc1nc(NCc2nc3cc(F)ccc3[nH]2)nc(Nc2cccc(CN3CCN(C(=O)c4nccnc4O)CC3)c2)n1 [TA1070, 2-(2-methoxyethoxy)ethyl (S)-3-(4-cyanophenyl)-2-((4-(((5-fluoro-1H-benzo[d]imidazol-2-yl)methyl)amino)-6-((3-((4-(3-hydroxypyrazine-2-carbonyl)piperazin-1-yl)methyl)phenyl)amino)-1,3,5-triazin-2-yl)amino)propanoate] | > 100 µM | < 20 µM

Results, then the molecule that gave them:

Row | IC50 [1] | IC50 [2] | Compound
6 | > 100 µM | < 20 µM | CNC(=O)[C@H](Cc1ccc(C#N)cc1)Nc1nc(NCc2nc3cc(F)ccc3[nH]2)nc(Nc2cccc(CN3CCN(C(=O)c4nccnc4O)CC3)c2)n1 [TA1024, (S)-3-(4-cyanophenyl)-2-((4-(((5-fluoro-1H-benzo[d]imidazol-2-yl)methyl)amino)-6-((3-((4-(3-hydroxypyrazine-2-carbonyl)piperazin-1-yl)methyl)phenyl)amino)-1,3,5-triazin-2-yl)amino)-N-methylpropanamide]
7 | > 100 µM | < 20 µM | COC(=O)[C@@H](Cc1ccc(C#N)cc1)Nc1nc(NCc2nc3cc(F)ccc3[nH]2)nc(Nc2cccc(CN3CCN(C(=O)c4nccnc4O)CC3)c2)n1 [TA1027, methyl (R)-3-(4-cyanophenyl)-2-((4-(((5-fluoro-1H-benzo[d]imidazol-2-yl)methyl)amino)-6-((3-((4-(3-hydroxypyrazine-2-carbonyl)piperazin-1-yl)methyl)phenyl)amino)-1,3,5-triazin-2-yl)amino)propanoate]
8 | > 100 µM | < 20 µM | COC(=O)[C@H](Cc1ccc(C#N)cc1)Nc1nc(NCc2nc3cc(Cl)ccc3[nH]2)nc(Nc2cccc(CN3CCN(C(=O)c4nccnc4O)CC3)c2)n1 [TA1059, methyl (S)-2-((4-(((5-chloro-1H-benzo[d]imidazol-2-yl)methyl)amino)-6-((3-((4-(3-hydroxypyrazine-2-carbonyl)piperazin-1-yl)methyl)phenyl)amino)-1,3,5-triazin-2-yl)amino)-3-(4-cyanophenyl)propanoate]
9 | > 100 µM | < 20 µM | COC(=O)[C@H](Cc1ccc(C#N)cc1)Nc1nc(NCc2nc3cc(Cl)ccc3[nH]2)nc(Nc2cccc(CN3CCN(C(=O)c4c[nH]nn4)CC3)c2)n1 [TA1061, methyl (S)-2-((4-((3-((4-(1H-1,2,3-triazole-4-carbonyl)piperazin-1-yl)methyl)phenyl)amino)-6-(((5-chloro-1H-benzo[d]imidazol-2-yl)methyl)amino)-1,3,5-triazin-2-yl)amino)-3-(4-cyanophenyl)propanoate]
10 | > 100 µM | < 20 µM | N#Cc1ccc(C[C@H](Nc2nc(NCc3nc4cc(F)ccc4[nH]3)nc(Nc3cccc(CN4CCN(C(=O)c5nccnc5O)CC4)c3)n2)C(=O)O)cc1 [TA1071, (S)-3-(4-cyanophenyl)-2-((4-(((5-fluoro-1H-benzo[d]imidazol-2-yl)methyl)amino)-6-((3-((4-(3-hydroxypyrazine-2-carbonyl)piperazin-1-yl)methyl)phenyl)amino)-1,3,5-triazin-2-yl)amino)propanoic acid]

From patent publication US20210246122A1, “Triazine Compounds and Uses Thereof” (Aduro Biotech, Inc., priority 2018, published 2021)
